Test results reported in ChEMBL document CHEMBL5344446, “Constituents from the Polar Extract of Pisolithus arhizus and Their Anti-inflammatory Activity” (J Nat Prod, 2024).
Activity calls are given as the source filed them. No cut-off for these calls is given here.

Assays:
THP-1 [1] = assay: Downregulation of pSTAT3 protein expression in LPS-induced PMA-differentiated human THP-1 cells at […] pretreated with LPS for 3 hrs followed by compound addition and measured after 6 hrs by Western blot analysis; assay type: functional, cell-based; conditions: dose lower 25.0 mg/ml
THP-1 [2] = assay: Cytotoxicity against PMA-differentiated human THP-1 cells assessed as reduction in cell viability at 25 to 100 ug/ml measured after 24 hrs by MTT assay; assay type: toxicity, cell-based; conditions: thp-1, 24 h, dose 25-100 µg/ml
THP-1 [3] = assay: Antiinflammatory activity in PMA-differentiated human THP-1 cells assessed as reduction in LPS-induced IL-6 secretion at 25 to 30 ug/ml pretreated with LPS for 3 hrs followed by compound addition and measured after 6 hrs by ELISA; assay type: functional, cell-based; conditions: dose 25-30 µg/ml

## O=C1O/C(=C(/C(=O)O)c2ccc(O)cc2)C(O)=C1c1ccc2c(O)c(O)cc(C3=C(O)/C(=C(\C(=O)O)c4ccc(O)cc4)OC3=O)c2c1
THP-1 [1]
  Activity: Active
THP-1 [2]
  Activity: Non-Toxic
THP-1 [3]
  Activity: Active
